Experimental data published in ChEMBL document CHEMBL5338791, “Discovery of Novel 1,3-Diphenylpyrazine Derivatives as Potent S-Phase Kinase-Associated Protein 2 (Skp2) Inhibitors for the Treatment of Cancer” (J Med Chem, 2023).
Active and inactive are the calls of the source. The rule behind the calls is not given here.

Columns and labels:
MGC-803 [1] = experiment: Inhibition of colony formation in human MGC-803 cells at 0.5 to 2 uM incubated for 10 days by crystal violet staining based microscopy; assay type: functional, cell-based; details: dose 0.5-2 µM, time 10.0 day
MGC-803 [2] = experiment: Antitumor activity against human MGC-803 cells assessed as cell growth inhibition incubated for 72 hrs by MTT assay; assay type: functional, cell-based; details: MGC-803, 72 h
NCI-H1299 = experiment: Antitumor activity against human NCI-H1299 cells assessed as cell growth inhibition incubated for 72 hrs by MTT assay; assay type: functional, cell-based; details: NCI-H1299, 72 h
[3] = Half life in tumor of NOD-SCID mouse model xenografted with human PC-3 cells at 25 mg/kg, IG measured upto 48 hrs by LC-MS/MS analysis; assay type: ADME, organism-based, Neoplasm; details: po
[4] = MRTlast in plasma of NOD-SCID mouse model xenografted with human PC-3 cells at 25 mg/kg, IG measured upto 48 hrs by LC-MS/MS analysis; assay type: ADME, organism-based; details: po
MGC-803 [5] = experiment: Induction of cell cycle arrest in human MGC-803 cells assessed as accumulation of cells at G2 phase at 10 uM incubated for 24 hrs by flow cytometry (reference value: 20.64 %); assay type: functional
PC-3 [6] = experiment: Antitumor activity against human PC-3 cells xenografted in NOD-SCID mouse model assessed as tumor suppression at 50 mg/kg, IG administered once every 2 days for 21 days relative to control; assay type: functional; details: time 21 day
[7] = Metabolic stability in rat liver microsome assessed as half life at 20 umol/L preincubated for 5 mins followed by NADPH addition measured upto 60 mins by LC-MS/MS analysis; assay type: ADME; details: liver microsomes, dose 20 µmol/L, time < 65 min
[8] = Metabolic stability in rat liver S9 fraction assessed as half life at 20 umol/L preincubated for 5 mins followed by NADPH addition measured upto 60 mins by LC-MS/MS analysis; assay type: ADME, subcellular; details: dose 20 µmol/L, time < 65 min
[9] = Toxicity in NOD-SCID mouse model xenografted with human PC-3 cells assessed as change in spleen histology at 10 to 50 mg/kg, IG administered once every 2 days for 21 days by H and E staining based analysis; assay type: organism-based; details: in vivo, po, 504 h, dose 10-50 mg/kg, time 21 day
MGC-803 [10] = experiment: Induction of apoptosis in human MGC-803 cells assessed as necrotic cells at 2.5 uM incubated for 48 hrs by annexin V-FITC/PI staining based flow cytometry (reference value: 0.89 %); assay type: functional
[11] = Biodistribution in tumor of NOD-SCID mouse model xenografted with human PC-3 cells at 25 mg/kg, IG measured for 48 hrs by LC-MS/MS analysis; assay type: ADME, organism-based, Neoplasm; details: in vivo, po
MGC-803 [12] = experiment: Antitumor activity against human MGC-803 cells xenografted in NOD-SCID mouse model assessed as increase in apoptosis in tumor tissue at 10 to 50 mg/kg, IG administered once every 2 days for 21 days by TUNEL staining based analysis; assay type: functional, organism-based; details: dose 10-50 mg/kg, time 21.0 day
[13] = Toxicity in NOD-SCID mouse model xenografted with human PC-3 cells assessed as change in liver histology at 10 to 50 mg/kg, IG administered once every 2 days for 21 days by H and E staining based analysis; assay type: organism-based; details: in vivo, po, 504 h, dose 10-50 mg/kg, time 21 day
MGC-803 [14] = experiment: Induction of apoptosis in human MGC-803 cells assessed as necrotic cells at 5 uM incubated for 48 hrs by annexin V-FITC/PI staining based flow cytometry (reference value: 0.89 %); assay type: functional
MGC-803 [15] = experiment: Induction of cell cycle arrest in human MGC-803 cells assessed as accumulation of cells at S phase at 10 uM incubated for 48 hrs by flow cytometry (reference value: 22.72 %); assay type: functional
PC-3 [16] = experiment: Antitumor activity against human PC-3 cells xenografted in NOD-SCID mouse model assessed as downregulation of Skp2 expression at 10 to 50 mg/kg, IG administered once every 2 days for 21 days by Western blot analysis; assay type: functional, organism-based; details: dose 10-50 mg/kg, time 21.0 day
[17] = Cmax in plasma of NOD-SCID mouse model xenografted with human PC-3 cells at 25 mg/kg, IG measured upto 48 hrs by LC-MS/MS analysis; assay type: ADME, organism-based; parameters: time < 48 hrs, dose 25 mg/kg, route ig; details: po
PC-3 [18] = experiment: Antitumor activity against human PC-3 cells assessed as cell growth inhibition incubated for 72 hrs by MTT assay; assay type: functional, cell-based; details: PC-3, 72 h
PC-3 [19] = experiment: Induction of apoptosis in human PC-3 cells assessed as necrotic cells at 5 uM incubated for 48 hrs by annexin V-FITC/PI staining based flow cytometry (reference value: 0.14 %); assay type: functional
[20] = target: S-phase kinase-associated protein 2 (Homo sapiens, UniProt Q13309); experiment: Inhibition of Skp2 in human MGC-803 cells treated with shRNA 5'-GGACCTATCGAACTCAGTTAT-3' incubated upto 48 hrs by Western blot analysis (reference value: 7 +/- 1.1 microM); assay type: cell-based
[21] = Cmax in tumor of NOD-SCID mouse model xenografted with human PC-3 cells at 25 mg/kg, IG measured upto 48 hrs by LC-MS/MS analysis; assay type: ADME, organism-based, Neoplasm; parameters: time < 48 hrs, dose 25 mg/kg, route ig; details: po
MGC-803 [22] = experiment: Induction of apoptosis in human MGC-803 cells assessed as viable cells at 5 uM incubated for 48 hrs by annexin V-FITC/PI staining based flow cytometry (reference value: 98 %); assay type: functional; details: read-out: Activity
MGC-803 [23] = experiment: Antitumor activity against human MGC-803 cells xenografted in NOD-SCID mouse model assessed as downregulation of ki67 level at 10 to 50 mg/kg, IG administered once every 2 days for 21 days by Western blot analysis; assay type: functional, organism-based; details: dose 10-50 mg/kg, time 21.0 day
[24] = AUClast in tumor of NOD-SCID mouse model xenografted with human PC-3 cells at 25 mg/kg, IG measured upto 48 hrs by LC-MS/MS analysis; assay type: ADME, organism-based, Neoplasm; details: in vivo, po
MGC-803 [25] = experiment: Induction of apoptosis in human MGC-803 cells assessed as viable cells at 2.5 uM incubated for 48 hrs by annexin V-FITC/PI staining based flow cytometry (reference value: 98 %); assay type: functional; details: read-out: Activity
[26] = Toxicity in NOD-SCID mouse model xenografted with human PC-3 cells assessed as body weight change at 10 to 50 mg/kg, IG administered once every 2 days for 21 days; assay type: organism-based; details: in vivo, po, 504 h, dose 10-50 mg/kg, time 21 day
[27] = Toxicity in NOD-SCID mouse model xenografted with human PC-3 cells assessed as change in kidney histology at 10 to 50 mg/kg, IG administered once every 2 days for 21 days by H and E staining based analysis; assay type: organism-based; details: in vivo, po, 504 h, dose 10-50 mg/kg, time 21 day
[28] = Toxicity in NOD-SCID mouse model xenografted with human MGC-803 cells assessed as drug tolerance at 10 to 50 mg/kg, IG administered once every 2 days for 21 days; assay type: organism-based; details: in vivo, po, 504 h, dose 10-50 mg/kg, time 21 day
MGC-803 [29] = experiment: Induction of apoptosis in human MGC-803 cells assessed as early apoptotic cells at 5 uM incubated for 48 hrs by annexin V-FITC/PI staining based flow cytometry (reference value: 0.21 %); assay type: functional
MGC-803 [30] = experiment: Antitumor activity against human MGC-803 cells xenografted in NOD-SCID mouse model assessed as tumor growth inhibition at 10 to 50 mg/kg, IG administered once every 2 days for 21 days; assay type: functional, organism-based; details: dose 10-50 mg/kg, time 21.0 day
PC-3 [31] = experiment: Induction of cell cycle arrest in human PC-3 cells assessed as accumulation of cells at G2 phase at 10 uM incubated for 48 hrs by flow cytometry (reference value: 22.59 %); assay type: functional
PC-3 [32] = experiment: Inhibition of cell migration in human PC-3 cells by transwell invasion assay; assay type: functional, cell-based; details: dose <= 2.0 µM

Sequence of S-phase kinase-associated protein 2 (Q13309 whole entry): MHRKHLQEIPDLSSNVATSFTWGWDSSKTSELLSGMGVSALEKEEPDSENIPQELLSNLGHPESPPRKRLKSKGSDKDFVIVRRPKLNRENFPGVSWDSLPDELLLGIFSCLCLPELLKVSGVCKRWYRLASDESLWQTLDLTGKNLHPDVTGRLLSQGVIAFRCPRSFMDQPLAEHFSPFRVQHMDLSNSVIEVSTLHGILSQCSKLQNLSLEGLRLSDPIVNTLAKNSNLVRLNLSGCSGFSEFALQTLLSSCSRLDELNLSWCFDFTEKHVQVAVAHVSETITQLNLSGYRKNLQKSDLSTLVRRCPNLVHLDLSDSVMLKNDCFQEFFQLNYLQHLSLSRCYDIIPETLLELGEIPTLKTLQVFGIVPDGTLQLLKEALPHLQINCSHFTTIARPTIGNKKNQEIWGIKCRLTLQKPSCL

## O=C(CCl)NC1CCN(c2cnc(-c3ccccc3)c(-c3ccccc3)n2)CC1
MGC-803 [1]
  inhibition: Active
MGC-803 [2]
  IC50: 7 µM
NCI-H1299
  IC50: 7.1 µM
[3]
  half-life: 12.6 h
[4]
  MRT last at 48 h: 13.4 h
MGC-803 [5]
  Activity: 17.72%
PC-3 [6]
  Activity: 100%
[7]
  half-life at 20 µM: 0.272 h
[8]
  half-life at 20 µM: 0.257 h
[9]
  Activity: Non-Toxic
MGC-803 [10]
  Activity: 1.02%
[11]
  Drug uptake: Active
MGC-803 [12]
  Activity: Active
[13]
  Activity: Non-Toxic
MGC-803 [14]
  Activity: 1.27%
MGC-803 [15]
  Activity: 45.07%
PC-3 [16]
  Activity: Active
[17]
  Cmax: 176 ng/mL
PC-3 [18]
  IC50: 4.8 µM
PC-3 [19]
  Activity: 5.15%
[20]
  IC50: 39.2 µM
[21]
  Cmax: 182 ng/g
MGC-803 [22]
  viability at 5 µM: 82.9%
MGC-803 [23]
  Activity: Active
[24]
  AUClast: 2443.9 ng·h/g
MGC-803 [25]
  viability at 2.5 µM: 89.6%
[26]
  Activity: Non-Toxic
[27]
  Activity: Non-Toxic
[28]
  Activity: Non-Toxic
MGC-803 [29]
  Activity: 3.65%
MGC-803 [30]
  TGI: Active
PC-3 [31]
  Activity: 16.41%
PC-3 [32]
  inhibition: Dose-Dependent Effect
